Source: patent US20120129870A1, “PIPERAZINYL DERIVATIVES USEFUL AS MODULATORS OF THE NEUROPEPTIDE Y2 RECEPTOR” (priority 2007, published 2012)

Target: T1, NPY Y2 receptor (Homo sapiens, UniProt P49146)
T1 sequence (P49146 1-381): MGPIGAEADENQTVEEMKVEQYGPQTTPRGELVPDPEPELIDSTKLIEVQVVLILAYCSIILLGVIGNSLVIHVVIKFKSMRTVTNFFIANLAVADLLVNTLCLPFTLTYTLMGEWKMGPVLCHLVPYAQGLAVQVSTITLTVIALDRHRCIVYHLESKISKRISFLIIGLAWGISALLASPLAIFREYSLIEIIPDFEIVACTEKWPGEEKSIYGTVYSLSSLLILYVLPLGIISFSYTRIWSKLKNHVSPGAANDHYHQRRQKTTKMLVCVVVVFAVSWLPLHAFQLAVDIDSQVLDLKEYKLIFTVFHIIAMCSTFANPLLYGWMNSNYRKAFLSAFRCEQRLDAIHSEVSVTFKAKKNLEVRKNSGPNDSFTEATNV
Assay: Neuropeptide Y2 radioligand binding assay ([125I]PYY, KAN-Ts membranes)
Design: endogenous in cells; host or cells: KAN-Ts cells (membrane preparation)
Details: KAN-Ts membranes endogenously expressing Y2, [125I]PYY (80 pM), 1 h at rt
Protocol: KAN-Ts endogenously expressing Y2 receptors were used for the radioligand binding assay. Cells were grown to confluence on 150 cm^2 tissue culture plates, washed with phosphate-buffered saline (PBS), and scraped into 50 mL tubes. After centrifugation, the supernatant was aspirated, and the pellets frozen and stored at −80° C. Thawed pellets were homogenized with a polytron tissue grinder for 15 sec in 20 mM Tris-HCl, 5 mM EDTA. The homogenate was centrifuged at 800×g for 5 min and the collected supernatant was recentrifuged at 25000×g for 25 min. The resulting pellet was resuspended in binding buffer (20 mM HEPES, 120 mM NaCl, 0.22 mM KH2PO4, 1.3 mM CaCl2, 0.8 mM MgSO4). Membranes were incubated with [^125I]PYY (80 pM) in the presence or absence of test compound for 1 h at rt. The reaction was stopped by filtration through GF/C filter plates pre-soaked in 0.3% polyethylenimine and subsequently washed with Tris 50 mM, 5 mM EDTA buffer. Plates were dried for 1 h in a 55° C. oven, scintillation fluid was added and the radioactivity was counted in a Packard TopCount. Specific binding to the NPY receptor subtypes was determined by radioactivity that was bound in the presence of […]. Each binding experiment was repeated three to eight times, each in duplicate. IC50 values (i.e. concentration of unlabelled peptide or antagonist required to compete for 50% of specific binding to the radioligand) were calculated using the GraphPad Prism software (GraphPad Software Inc., San Diego Calif.) with a fit to a sigmoidal dose response curve. Apparent K, values were calculated as Ki=IC50/(1+C/KD), where C is concentration of the radioligand.

| Compound | IC50 [nM] |
| --- | --- |
| Cc1ccccc1C(=O)Nc1ccc(N2CCN(C(c3ccccc3)c3ncco3)CC2)c(C#N)c1 (centres unmarked) [Compound 96, N-{3-Cyano-4-[4-(oxazol-2-yl-phenyl-methyl)-piperazin-1-yl]-phenyl}-2-methyl-benzamide] | 150 |
| CCCC(=O)Nc1ccc(N2CCN(C(c3ccccc3)c3ncco3)CC2)c(C#N)c1 (centres unmarked) [Compound 98, N-{3-Cyano-4-[4-(oxazol-2-yl-phenyl-methyl)-piperazin-1-yl]-phenyl}-butyramide] | 180 |
| CCC(CC)C(=O)Nc1ccc(N2CCN(C(c3ccc(Cl)cc3)C3CC3)CC2)c(F)c1 (centres unmarked) [Compound 102, N-(4-{4-[(4-Chloro-phenyl)-cyclopropyl-methyl]-piperazin-1-yl}-3-fluoro-phenyl)-2-ethyl-butyramide] | 720 |
| CC(=O)Nc1ccc(N2CCN(C(c3ccccc3)c3ncco3)CC2)c(C#N)c1 (centres unmarked) [Compound 103, N-{3-Cyano-4-[4-(oxazol-2-yl-phenyl-methyl)-piperazin-1-yl]-phenyl}-acetamide] | > 10000 |
| O=C(Nc1ccc(N2CCN(C(c3ccccc3)c3ncco3)CC2)c(F)c1)C1CCCCC1 (centres unmarked) [Compound 107, Cyclohexanecarboxylic acid {3-fluoro-4-[4-(oxazol-2-yl-phenyl-methyl)-piperazin-1-yl]-phenyl}-amide] | 1200 |
| O=C(Nc1ccc(N2CCN(C(c3ccccc3)c3ncco3)CC2)c(F)c1)C1CCC(F)(F)CC1 (centres unmarked) [Compound 108, 4,4-Difluoro-cyclohexanecarboxylic acid {3-fluoro-4-[4-(oxazol-2-yl-phenyl-methyl)-piperazin-1-yl]-phenyl}-amide] | > 10000 |

The next lines start with the values.

| IC50 [nM] | Compound |
| --- | --- |
| 1300 | CCCC(=O)Nc1ccc(N2CCN(C(c3ccccc3)c3ncco3)CC2)c(F)c1 (centres unmarked) [Compound 100, N-{3-Fluoro-4-[4-(oxazol-2-yl-phenyl-methyl)-piperazin-1-yl]-phenyl}-butyramide] |
| 170 | N#Cc1cc(NC(=O)C2CC2)ccc1N1CCN(C(c2ccccc2)c2ncco2)CC1 (centres unmarked) [Compound 101, Cyclopropanecarboxylic acid {3-cyano-4-[4-(oxazol-2-yl-phenyl-methyl)-piperazin-1-yl]-phenyl}-amide] |
| > 10000 | CC(=O)Nc1ccc(N2CCN(C(c3ccccc3)c3ncco3)CC2)c(F)c1 (centres unmarked) [Compound 104, N-{3-Fluoro-4-[4-(oxazol-2-yl-phenyl-methyl)-piperazin-1-yl]-phenyl}-acetamide] |
| 250 | CCC(CC)C(=O)Nc1ccc(N2CCN(C(c3ccc(F)cc3)C3CCC3)CC2)c(F)c1 (centres unmarked) [Compound 106, N-(4-{4-[Cyclobutyl-(4-fluoro-phenyl)-methyl]-piperazin-1-yl}-3-fluoro-phenyl)-2-ethyl-butyramide] |
| 3600 | N#Cc1cc(NC(=O)C2CCC(F)(F)CC2)ccc1N1CCN(C(c2ccccc2)c2ncco2)CC1 (centres unmarked) [Compound 109, 4,4-Difluoro-cyclohexanecarboxylic acid {3-cyano-4-[4-(oxazol-2-yl-phenyl-methyl)-piperazin-1-yl]-phenyl}-amide] |
| 360 | CC(CC(F)(F)F)C(=O)Nc1ccc(N2CCN(C(c3ccccc3)c3ncco3)CC2)c(F)c1 (centres unmarked) [Compound 111, 4,4,4-Trifluoro-N-{3-fluoro-4-[4-(oxazol-2-yl-phenyl-methyl)-piperazin-1-yl]-phenyl}-2-methyl-butyramide] |
| 430 | N#Cc1cc(NC(=O)C2CCCCC2)ccc1N1CCN(C(c2ccccc2)c2ncco2)CC1 (centres unmarked) [Compound 112, Cyclohexanecarboxylic acid {3-cyano-4-[4-(oxazol-2-yl-phenyl-methyl)-piperazin-1-yl]-phenyl}-amide] |
| 460 | CCC(CC)C(=O)Nc1ccc(N2CCN(C(c3ccccc3)C3CCOC3)CC2)c(F)c1 (centres unmarked) [Compound 114, 2-Ethyl-N-(3-fluoro-4-{4-[phenyl-(tetrahydro-furan-3-yl)-methyl]-piperazin-1-yl}-phenyl)-butyramide] |
